Assay results as given in publication PMC7004140, “In vitro hepatotoxicity of Petasites hybridus extract (Ze 339) depends on the concentration, the cytochrome activity of the cell system, and the species used” (Phytotherapy Research, 2019).

Columns and labels:
HepaRG cells [1] = assay: WST-1 metabolic activity (cytotoxicity) in HepaRG cells; assay type: cell-based, human; conditions: 4 hr
Description: (§1) HepG2 and H‐4‐II‐E cells were differentiated for 24 hr. HepaRG cells were directly seeded in precoated 96‐well microtiter plates and were incubated in William's medium with general purpose supplements according to manufacturer's manual until adherence. All cells were treated with Ze 339 (up to 100 μg/ml) or petasin, isopetasin, neopetasin, petasol, isopetasol, petasin mixture, fatty acid mixture, and reconstituted extracts (up to 250 μM) for 4 hr.
(§2) In the three cell lines, cytotoxicity was defined as a decrease in metabolic activity of ≥20% in the WST‐1 assay. At the end of the experiment, 10 μl WST‐1 reagent was added to each well. Plates were then incubated for 2 hr to allow for the reduction of WST‐1 reagent. Absorbance was measured using a microplate absorbance reader (Infinite M 200, Tecan Trading Ltd., Switzerland) at 450 nm, reference wavelength of 620 nm. Due to some matrix effect, the lowest concentration (0.02 μg/ml for Ze 339 and 3.9 μM for single constituents and mixtures) of each substance tested was defined as 100% metabolic activity. Results were expressed as percentage of the control metabolic activity, and data were presented as mean values ± SEM (n = 3–6).
(§3) Concentration‐response analysis was done using the sigmoidal Hill equation: E(t) = E0 − Emax × C(t)^N/(IC50 ^N + C(t)^N), where E is the effect at time t, E0 the effect at baseline (time = 0), IC50 the concentration yielding 50% of the maximal effect (Emax), and N denotes the sigmoidicity coefficient (Origin 2017 Software). For statistical analysis, analysis of variance with Dunnett's multicomparison test was used to correct for multiplicity of testing (IBM SPSS Statistics software, version 25, IBM Corp., USA). The level of significance was ^* p < .05, ^** p < .01 and ^*** p < .001; NS = no significance.

HepG2 cells = assay: WST-1 metabolic activity (cytotoxicity) in HepG2 cells; assay type: cell-based, human; conditions: HepG2, up to 250 μM, 4 hr
Description: as §1, §2, §3

H-4-II-E cells = assay: WST-1 metabolic activity (cytotoxicity) in H-4-II-E cells; assay type: cell-based, rat (Rattus norvegicus)
Description: as §1, §2, §3

HepaRG cells [2] = assay: Coincubation of Ze 339 with single cytochrome inhibitors in HepaRG cells (WST-1); assay type: cell-based, human; conditions: inhibitor 10 μM, Ze 339 100 μg/ml, 4 hr
Description: To investigate whether metabolic activation by human phase I enzymes—at least in part—contributes to the cytotoxic effect, Ze 339 (concentrations up to 100 μg/ml) was coincubated in HepaRG cells for 4 hr with different single cytochromes inhibitors: ketoconazole (CYP3A4), sulfaphenazole (CYP2C9), montelukast (CYP2C8), omeprazole (CYP2C19), α‐naphthoflavone (CYP1A2), quinidine (CYP2D6), xanthotoxin (CYP2A6), chlormethiazole (CYP2E1), and ticlopidine (CYP2B6)—(each at a concentration of 10 μM). Inhibition of metabolic activity was evaluated with the WST‐1 assay using Ze 339 without inhibitor as a control.

**Q.** `C=C(C)[C@@H]1C[C@@]2(C)C(=CC1=O)CC[C@@H](O)[C@@H]2C` [petasol] was tested. Which metabolic activity (HepaRG cells [1]; 250 μM) did it give?
**A.** 68.6%

**Q.** What about the cytotoxic effects (HepG2 cells) of the same compound?
**A.** did not show cytotoxic effects

**Q.** And the metabolic activity (H-4-II-E cells; concentrations ≥125 μM)?
**A.** up to 109%

**Q.** And the “change in metabolic activity” value (H-4-II-E cells; medium concentrations 15.6–62.5 μM)?
**A.** slight decrease

**Q.** Which cytotoxicity (HepaRG cells [1]; highest concentration) does the source give for `CC(C)=C1C[C@@]2(C)C(=CC1=O)CC[C@@H](O)[C@@H]2C` [isopetasol] here?
**A.** not cytotoxic

**Q.** What about the cytotoxic effects (HepG2 cells) of the same compound?
**A.** did not show cytotoxic effects

**Q.** What about the “change in metabolic activity” value (H-4-II-E cells; from 7.8 to 125 μM) of the same compound?
**A.** increase in metabolic activity

**Q.** And the “change in metabolic activity” value (H-4-II-E cells; highest concentration)?
**A.** virtually no change

**Q.** With `C=C[C@H]1C[N@@]2CC[C@H]1C[C@@H]2[C@@H](O)c1ccnc2ccc(OC)cc12` [quinidine] as the compound, how does the “effect of cytochrome inhibitor on the cytotoxic effect of Ze 339” value (HepaRG cells [2]) read?
**A.** attenuated

**Q.** Which “effect of cytochrome inhibitor on the cytotoxic effect of Ze 339” value (HepaRG cells [2]) does the source give for `CC(C)(O)c1ccccc1CC[C@@H](SCC1(CC(=O)O)CC1)c1cccc(/C=C/c2ccc3ccc(Cl)cc3n2)c1` [montelukast] here?
**A.** attenuated
